The text below walks through data of patent US20150344466A1 (SUMITOMO CHEMICAL COMPANY, LIMITED, priority 2013, published 2015).

What all share (type): in vivo
The subject of test [1] is Culex pipiens pallens. The test is described as follows: Larvicidal test on Culex pipiens pallens, eight days (Test Example 7). The note with it: 192 h; last-instar larvae of Culex pipiens pallens; 3.5 ppm in water; eight days later; read-out: death rate. How it is done:
20 last-instar larvae of Culex pipiens pallens were released into a liquid to which 0.7 ml of the above test drug solution was added to 100 ml of ion-exchanged water (a concentration of the active ingredient of 3.5 ppm). Eight days later, the life and death of the Culex pipiens pallens was examined, and the death rate was calculated. The death rate was calculated by the following equation.
(§1) Death rate (%)=(Number of dead insects/Number of tested insects)×100

The test system of test [2] is Musca domestica. The test is described as follows: Knockdown spray test on adult Musca domestica (Test Example 3). The note with it: topical, 0.25 h, active ingredient 2.0% w/v, 0.5 ml sprayed, within 15 minutes, read-out: knockdown rate of the test insects within 15 minutes. The essentials:
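Ten adult house flies (5 male, 5 female) in a gauze-covered cup sprayed with 0.5 ml test solution from 30 cm at 0.9 kg/cm^2 inside a chamber, then removed. Knocked-down flies counted at 2, 5 and 15 min and expressed as % of insects tested.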

In test [3] the test system is Culex pipiens pallens. The test is described as follows: Knockdown spray test on adult Culex pipiens pallens (Test Example 4). The note with it: topical, 0.25 h, active ingredient 0.1% w/v, 0.5 ml sprayed, within 15 minutes, read-out: knockdown rate of the test insects within 15 minutes. An outline of the steps:
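Knockdown counts were taken 2, 5 and 15 min after spraying and expressed as percent of the 10 adults tested. For the spray, 0.5 ml of solution was applied by spray gun (0.4 kg/cm^2) from 30 cm above a gauze-covered cup in a test chamber; the cup was taken out right after spraying.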

The next test deals with Spodoptera litura. The test is described as follows: Foliar spray test on Spodoptera litura on cabbage (Test Example 11). The note with it: 96 h, fourth instar larvae of Spodoptera litura on cabbage, 500 ppm spray 20 ml/cup, after 4 days, read-out: controlling value. As for the experimental part:
On the other hand, cabbage was planted in a polyethylene cup, and grown until the third-fourth true leaf was spread. The test spray solution was sprayed to the cabbage at a ratio of 20 ml/cup. After the drug solution sprayed orn the cabbage was dried, 10 fourth instar larvae of Spodoptera litura were allowed to parasitize the cabbage. After 4 days, the number of surviving Spodoptera litura on the cabbage leaves was examined, and the controlling value was calculated according to the following equation. Controlling value (%)={1−(Cb×Tai)/([…])}×100 In the equation, the symbols represent as follows. Cb: the number of insects in a non-treated section before treatment Cai: the number of insects in a non-treated section on observation Tb: the number of insects in a treated section before treatment Tai: the number of insects in a treated section on observation

The subject of test [4] is Blattella germanica. The test is described as follows: Knockdown spray test on Blattella germanica, 2.0% w/v oil formulation (Test Example 1). The note with it: topical, 0.25 h, active ingredient 2.0% w/v, 1.5 ml sprayed, within 15 minutes, read-out: knockdown rate of the test insects within 15 minutes. An outline of the steps: (§2)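 Ten German cockroaches (5 males, 5 females) in a mesh-bottomed, butter-walled container were sprayed with 1.5 ml test solution from 60 cm at 0.42 kg/cm^2 inside a chamber.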

For test [5], the system named is Culex pipiens pallens. The test is described as follows: Larvicidal test on Culex pipiens pallens, one day (Test Example 6). The note with it: 24 h; last-instar larvae of Culex pipiens pallens; 3.5 ppm in water; one day later; read-out: death rate. How it is done:
Each of the formulations of Compounds of Present Invention (39), (63), (71), (72), (92), (93), (95), (106), (150), (171), (170), (181), (182), (183), (187), (188), (189), (190), (191), (192), (200), (201), (201), (234), (246), (290) and (299) obtained in Formulation Example 15 was diluted with water, so as to have a concentration of the active ingredient of 500 ppm, to prepare a test drug solution.
20 last-instar larvae of Culex pipiens pallens were released into a liquid to which 0.7 ml of the above test drug solution was added to 100 ml of ion-exchanged water (a concentration of the active ingredient of 3.5 ppm). One day later, the life and death of the Culex pipiens pallens was examined, and the death rate was calculated. The death rate was calculated by the following equation.
as §1

For a further test, the system named is Plutella xylostella. Description: Foliar spray test on Plutella xylostella on cabbage (Test Example 10). The note with it: 120 h, third instar larvae of Plutella xylostella on cabbage, 500 ppm spray 20 ml/cup, after five days, read-out: controlling value. The essentials:
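Cabbage at the third–fourth true-leaf stage sprayed with test solution at 20 ml/cup, dried, then infested with 10 third-instar larvae. Insects counted after five days; controlling value (%) calculated from treated and non-treated counts before treatment and at observation.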

The subject of test [6] is Blattella germanica. Description: Knockdown spray test on Blattella germanica, 0.1% w/v oil formulation (Test Example 2). The note with it: topical, 0.25 h, active ingredient 0.1% w/v, 1.5 ml sprayed, within 15 minutes, read-out: knockdown rate of the test insects within 15 minutes. The essentials: as §2
The subject of test [7] is Musca domestica. Description: Filter paper/sucrose bait death rate test on Musca domestica (Test Example 5). The note with it: female imagoes of Musca domestica, 0.7 ml on filter paper, after 24 hours. An outline of the steps: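 Ten female imagoes were confined in a sealed cup over a filter paper treated with 0.7 ml of test solution and 30 mg sucrose bait. Mortality was scored at 24 h and expressed as percent of tested insects killed.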

`O=C(NCC1CCOC1)c1cc(COCc2ccc3ccccc3c2)on1` (centres unmarked) [(20), N-(tetrahydrofuran-3-ylmethyl)-5-(2-naphthylmethoxymethyl)isoxazole-3-carboxamide]: the pest or weed control at 3.5 ppm with Culex pipiens pallens [1] was not below 90%. The pest or weed control at 2 % strength in the test on Musca domestica [2] and in the test on Blattella germanica [4] was not below 80% in each case. Besides, the pest or weed control at 0.1 % strength in the test on Culex pipiens pallens [3] is not below 80%. In addition, in the test with Spodoptera litura, the pest or weed control at 500 ppm was not below 80%.

As for `O=C(NCC1CCOC1)c1cc(COCc2ccc(C(F)(F)F)cc2)on1` (centres unmarked) [(63), N-(tetrahydrofuran-3-ylmethyl)-5-(4-trifluoromethylbenzyloxymethyl)isoxazole-3-carboxamide], the pest or weed control at 3.5 ppm with Culex pipiens pallens [1] and in the test on Culex pipiens pallens [5] was not below 90% each time. For the same compound, the pest or weed control at 2 % strength in the test with Musca domestica [2] and in the test on Blattella germanica [4] was not below 80% throughout. Further, the pest or weed control at 0.1 % strength with Culex pipiens pallens [3] was not below 80%.

In the case of `O=C(NCC1CCOCC1)c1cc(COCc2ccc(Cl)cc2)on1` [(71), N-(tetrahydropyran-4-ylmethyl)-5-(4-chlorobenzyloxymethyl)isoxazole-3-carboxamide], the pest or weed control at 0.1 % strength in the test on Culex pipiens pallens [3] is not below 80%. In the test on Plutella xylostella, the pest or weed control at 500 ppm is not below 90%. In addition, in the test with Culex pipiens pallens [5], the pest or weed control at 3.5 ppm is not below 90%.

Turning to `O=C(NCC1CCOC1)c1cc(COCc2ccc(Cl)c(Cl)c2)on1` (centres unmarked) [(72), N-(tetrahydrofuran-3-ylmethyl)-5-(3,4-dichlorobenzyloxymethyl)isoxazole-3-carboxamide], the pest or weed control at 0.1 % strength in the test with Blattella germanica [6] and with Culex pipiens pallens [3] was not below 80% in each case. The pest or weed control at 500 ppm is not below 90% with Plutella xylostella, not below 90% in the test on Musca domestica [7] and not below 80% with Spodoptera litura. Further, the pest or weed control at 3.5 ppm in the test with Culex pipiens pallens [5] was not below 90%.

For `O=C(NCC1CCOC1)c1cc(COCc2cccc(Br)c2)on1` (centres unmarked) [(76), N-(tetrahydrofuran-3-ylmethyl)-5-[(3-bromobenzyl)oxymethyl]isoxazole-3-carboxamide], the pest or weed control at 3.5 ppm in the test on Culex pipiens pallens [1] is not below 90%. Moreover, the pest or weed control at 0.1 % strength in the test with Blattella germanica [6] and in the test on Culex pipiens pallens [3] was not below 80% each time. The pest or weed control at 500 ppm was not below 90% in the test with Plutella xylostella, not below 90% in the test with Musca domestica [7] and not below 80% in the test on Spodoptera litura.

Regarding `O=C(NCC1CCOCC1)c1cc(COCc2ccc(Br)cc2)on1` [(92), N-(tetrahydropyran-4-ylmethyl)-5-(4-bromobenzyloxymethyl)isoxazole-3-carboxamide], the pest or weed control at 3.5 ppm in the test with Culex pipiens pallens [1] and in the test with Culex pipiens pallens [5] was not below 90% throughout. Also, the pest or weed control at 0.1 % strength with Blattella germanica [6] and in the test with Culex pipiens pallens [3] was not below 80% in each case. In addition, the pest or weed control at 500 ppm in the test with Plutella xylostella was not below 90%.

As to `O=C(NCC1CCOC1)c1cc(COCc2ccc(OC(F)(F)F)cc2)on1` (centres unmarked) [(93), N-(tetrahydrofuran-3-ylmethyl)-5-(4-trifluoromethoxybenzyloxymethyl)isoxazole-3-carboxamide], the pest or weed control at 3.5 ppm in the test on Culex pipiens pallens [1] and in the test with Culex pipiens pallens [5] was not below 90% throughout. In addition, the pest or weed control at 0.1 % strength in the test with Blattella germanica [6] and with Culex pipiens pallens [3] was not below 80% in each case. The pest or weed control at 500 ppm in the test on Plutella xylostella is not below 90%.

In the case of `O=C(NCC1CCOC1)c1cc(COCc2ccc(SC(F)(F)F)cc2)on1` (centres unmarked) [(95), N-(tetrahydrofuran-3-ylmethyl)-5-(4-trifluoromethylthiobenzyloxymethyl)isoxazole-3-carboxamide], the pest or weed control at 3.5 ppm in the test on Culex pipiens pallens [1] and in the test on Culex pipiens pallens [5] was not below 90% throughout. Further, in the test with Culex pipiens pallens [3], the pest or weed control at 0.1 % strength was not below 80%.

For `O=C(NCC1CCOCC1)c1cc(COc2ccc(Cl)cc2)on1` [(181), N-(tetrahydropyran-4-ylmethyl)-5-[(4-chlorophenoxy)methyl]isoxazole-3-carboxamide], the pest or weed control at 3.5 ppm in the test on Culex pipiens pallens [1] and with Culex pipiens pallens [5] was not below 90% in each case. Further, the pest or weed control at 0.1 % strength in the test with Culex pipiens pallens [3] was not below 80%.

As to `O=C(NCC1CCOC1)c1cc(COc2ccc(Cl)c(Cl)c2)on1` (centres unmarked) [(182)], the pest or weed control at 3.5 ppm in the test with Culex pipiens pallens [1] and in the test with Culex pipiens pallens [5] was not below 90% each time. The pest or weed control at 0.1 % strength in the test with Culex pipiens pallens [3] was not below 80%.

As to `O=C(NCC1CCOCC1)c1cc(COc2ccc(Br)cc2)on1` [(187), N-(tetrahydropyran-4-ylmethyl)-5-(4-bromophenoxymethyl)isoxazole-3-carboxamide], the pest or weed control at 3.5 ppm in the test on Culex pipiens pallens [1] and in the test on Culex pipiens pallens [5] was not below 90% throughout. The pest or weed control at 0.1 % strength in the test with Culex pipiens pallens [3] was not below 80%.

On to `O=C(NCC1CCOC1)c1cc(COc2ccc(C(F)(F)F)cc2)on1` (centres unmarked) [(188), N-(tetrahydrofuran-3-ylmethyl)-5-(4-trifluorophenoxymethyl) isoxazole-3-carboxamide], for which the pest or weed control at 3.5 ppm in the test with Culex pipiens pallens [1] and in the test on Culex pipiens pallens [5] was not below 90% throughout. Moreover, the pest or weed control at 0.1 % strength in the test on Culex pipiens pallens [3] is not below 80%. The pest or weed control at 500 ppm in the test on Plutella xylostella was not below 90%.

In the case of `O=C(NCC1CCOCC1)c1cc(COc2ccc(C(F)(F)F)cc2)on1` [(189), N-(tetrahydropyran-4-ylmethyl)-5-(4-trifluoromethylphenoxymethyl)isoxazole-3-carboxamide], the pest or weed control at 3.5 ppm in the test with Culex pipiens pallens [1] and with Culex pipiens pallens [5] was not below 90% each time. The pest or weed control at 0.1 % strength with Culex pipiens pallens [3] was not below 80%.

For the compound `O=C(NCC1CCOC1)c1cc(COc2ccc(SC(F)(F)F)cc2)on1` (centres unmarked) [(192), N-(tetrahydrofuran-3-ylmethyl)-5-(4-trifluoromethylthiophenoxymethyl)isoxazole-3-carboxamide], the pest or weed control at 3.5 ppm in the test with Culex pipiens pallens [1] and in the test on Culex pipiens pallens [5] was not below 90% in each case. For the same compound, in the test with Culex pipiens pallens [3], the pest or weed control at 0.1 % strength was not below 80%.

Turning to `O=C(NCC1CCOC1)c1cc(COCc2ccc3ccccc3c2F)on1` (centres unmarked) [(258), N-(tetrahydrofuran-3-ylmethyl)-5-(1-fluoro-2-naphthylmethoxymethyl)isoxazole-3-carboxamide], the pest or weed control at 3.5 ppm in the test with Culex pipiens pallens [1] is not below 90%. For the same compound, the pest or weed control at 0.1 % strength with Blattella germanica [6] and in the test with Culex pipiens pallens [3] was not below 80% each time. For the same compound, the pest or weed control at 500 ppm was not below 90% in the test on Plutella xylostella and not below 80% in the test with Spodoptera litura.

As to `O=C(NCC1CCOC1)c1cc(Cc2ccc3c(c2)OCO3)on1` (centres unmarked) [(299), N-(tetrahydrofuran-3-ylmethyl)-5-(1,3-benzodioxolan-5-ylmethyl)isoxazole-3-carboxamide], the pest or weed control at 0.1 % strength with Culex pipiens pallens [3] was not below 80%. In the test with Musca domestica [7], this compound showed a pest or weed control at 500 ppm not below 90%. Also, the pest or weed control at 3.5 ppm with Culex pipiens pallens [5] is not below 90%.
